What was measured:
MC4R = conditions: ref [36],[59],[65]; cited from earlier work
From the text: (decreased cell surface expression), or zebrafish and topmouth culter (increased cell surface expression). Therefore, MRAP2 has a differential effect on MC4R membrane expression in different species. […] In topmouth culter, two isoforms of MRAP2 are also sho ...

goldfish = conditions: intracerebroventricular, ref [25]; cited from earlier work
From the text: MC4R has been investigated in several non-mammalian vertebrates including ectotherm fish, such as goldfish, rainbow trout, spotted scat, grass carp, ricefield eel, orange-spotted grouper, and topmouth culter. Similar to mammalian MC4Rs, teleost MC4R is also involved in regulating food intake and maintaining energy balance. […] Meanwhile, intracerebroventricular administration of M ...

caMC4R [1] = experiment: Ligand binding assay, caMC4R (displacement of ^125I-NDP-MSH); parameters: species or system Channa argus (Northern snakehead); conditions: HEK293T cells, 48 h after transfection, competition with ^125I-NDP-MSH, 1-h incubation, DMEM/BSA, gamma counter, mean ± SEM of at least three independent experiments
[2] = test system: brain gnih, sgnrh and cgnrh; ovarian genes; conditions: black rockfish, ref not given, cited from earlier work
From the text: In addition to energy homeostasis, MC4R also regulates reproduction and sexual function. Compared with mammals, the evidence of MC4R in regulating teleost reproduction is relatively scarce. In swordtail fish, nonfunctional Y-linked mc4r copies in larger males act as dominant-negative mutants and delay puberty onset. In spotted scat, MC4R stimulates gnrh expression in the hypothalamus, thereby modulating pituitary FSH and LH synthesis.

caMC4R [3] = experiment: cAMP assay, caMC4R; format: cell-based, Channa argus (Northern snakehead); conditions: HEK293T cells

ACTH
ligand sensitivity of MC4R to ACTH in the presence of MRAP2 (MC4R): increasing ligand sensitivity to ACTH

melanotan II
food intake (goldfish): inhibits food intake

HS024
food intake (goldfish): stimulates food intake

CSCC[C@H](NC(=O)[C@H](CCCNC(=N)N)NC(=O)[C@H](Cc1ccc(O)cc1)NC(=O)[C@@H]1CCCN1C(=O)CNC(=O)[C@H](CCC(=O)O)NC(=O)[C@H](CC(=O)O)NC(=O)[C@H](CCCCN)NC(=O)[C@H](CCCCN)NC(=O)[C@H](CCC(=O)O)NC(=O)[C@H](C)N)C(=O)N[C@@H](CCC(=O)O)C(=O)N[C@@H](Cc1c[nH]cn1)C(=O)N[C@@H](Cc1ccccc1)C(=O)N[C@@H](CCCNC(=N)N)C(=O)N[C@@H](Cc1c[nH]c2ccccc12)C(=O)NCC(=O)N[C@@H](CO)C(=O)N1CCC[C@H]1C(=O)N1CCC[C@H]1C(=O)N[C@@H](CCCCN)C(=O)N[C@@H](CC(=O)O)C(=O)O [β-MSH]
IC50 (caMC4R [1]): 329 ± 120 nM | expression of brain gnih, sgnrh and cgnrh ([2]; in vitro): increase brain gnih and decrease sgnrh and cgnrh expression in vitro | expression of ovarian genes [2]: affect expression of some ovarian genes | maximal response at caMC4R in comparison with hMC4R (caMC4R [3]; caMC4R vs hMC4R, cAMP): higher maximal responses than hMC4R | Rmax (caMC4R [3]; caMC4R, % of hMC4R, cAMP by RIA, 1 h at 37 °C, maximal response, mean ± SEM of at least three independent experiments): 163.9 ± 89.36% | EC50 (caMC4R [3]; caMC4R, cAMP by RIA, 0.5 mM isobutylmethylxanthine, 1 h at 37 °C, 10^−12 to 10^−6 M NDP-MSH and ACTH (1–24), 10^−11 to 10^−5 M α-MSH and β-MSH, mean ± SEM of at least three independent experiments): 2.49 ± 0.81 nM
